Source: ChEMBL document CHEMBL1201862, “PubChem BioAssay data set” (2004)
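Test compounds were applied to cells in 96-well plates for 48 hours at 5 doses. Abbreviation: GI50, concentration required for 50% inhibition of growth.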 Active and inactive are the calls of the source. No stated cut-off is given here; in the data, active = GI50 up to about 1.1 µM and inactive = higher.

Assays:
Assay in all cases: NCI anticancer screen, dose series, 48 h
Hs-578T = system: Hs-578T
RXF 393 = system: RXF 393
A498 = system: A498
SNB-75 = system: SNB-75
DU-145 = system: DU-145
SR = system: SR
PC-3 = system: PC-3
MDA-MB-435 = system: MDA-MB-435
M14 = system: M14
HOP-62 = system: HOP-62
MDA-N = system: MDA-N
TK-10 = system: TK-10
MDA-MB-231 = system: MDA-MB-231
T47D = system: T47D
BT-549 = system: BT-549
Malme-3M = system: Malme-3M
RPMI-8226 = system: RPMI-8226
OVCAR-4 = system: OVCAR-4
NCI/ADR-RES = system: NCI/ADR-RES

Row | SMILES | GI50 (Hs-578T) | GI50 (RXF 393) | GI50 (A498) | GI50 (SNB-75) | GI50 (DU-145) | GI50 (SR) | GI50 (PC-3) | GI50 (MDA-MB-435) | GI50 (M14) | GI50 (HOP-62) | GI50 (MDA-N) | GI50 (TK-10) | GI50 (MDA-MB-231) | GI50 (T47D) | GI50 (BT-549) | GI50 (Malme-3M) | GI50 (RPMI-8226) | GI50 (OVCAR-4) | GI50 (NCI/ADR-RES)
1 | O=C(O)C1(C(O)c2ccccc2)SCCCS1 (stereo not drawn) | > 10 µM (inactive) | > 10 µM (inactive) | > 10 µM (inactive) | > 10 µM (inactive) | > 10 µM (inactive) | > 10 µM (inactive) | > 10 µM (inactive) | > 10 µM (inactive) | > 10 µM (inactive) | > 10 µM (inactive) | > 10 µM (inactive) | > 10 µM (inactive) | > 10 µM (inactive) | > 10 µM (inactive) | > 10 µM (inactive) | > 10 µM (inactive) | – | – | –
2 | O=[N+]([O-])c1ccc(-c2nc3cc([N+](=O)[O-])ccc3[nH]2)cc1 | 40.5 µM (inactive) | 63.7 µM (inactive) | – | 39.4 µM (inactive) | 27.9 µM (inactive) | 29 µM (inactive) | 16.4 µM (inactive) | 29.4 µM (inactive) | 21.9 µM (inactive) | 31.9 µM (inactive) | 33.2 µM (inactive) | 52.2 µM (inactive) | – | 15.5 µM (inactive) | 31.2 µM (inactive) | 31.3 µM (inactive) | 13.7 µM (inactive) | 47.2 µM (inactive) | 17.6 µM (inactive)
3 | Clc1ccc(C(SCc2ccccc2)SCc2ccccc2)cc1 | > 10 µM (inactive) | > 10 µM (inactive) | > 10 µM (inactive) | > 10 µM (inactive) | > 10 µM (inactive) | > 10 µM (inactive) | > 10 µM (inactive) | – | > 10 µM (inactive) | > 10 µM (inactive) | > 10 µM (inactive) | > 10 µM (inactive) | > 10 µM (inactive) | > 10 µM (inactive) | – | > 10 µM (inactive) | > 10 µM (inactive) | > 10 µM (inactive) | > 10 µM (inactive)
4 | OC(c1cc(C(F)(F)F)nc2c(Cl)cc(Cl)cc12)C1CCCCN1 (stereo not drawn) | > 22.4 µM (inactive) | 4.8 µM (inactive) | > 36.1 µM (inactive) | 11.8 µM (inactive) | 7.01 µM (inactive) | 1.66 µM (inactive) | > 22.5 µM (inactive) | 5.61 µM (inactive) | > 25.1 µM (inactive) | 3.77 µM (inactive) | 77.1 µM (inactive) | – | > 22.1 µM (inactive) | 5.65 µM (inactive) | 14.5 µM (inactive) | – | 1.95 µM (inactive) | 5.01 µM (inactive) | 10.5 µM (inactive)
5 | CC1(O)OC(=O)C2=C1CCC1C2CCC2(C)C(O)CCC12 (stereo not drawn) | > 100 µM (inactive) | – | > 100 µM (inactive) | – | > 100 µM (inactive) | > 100 µM (inactive) | – | > 100 µM (inactive) | > 100 µM (inactive) | > 100 µM (inactive) | > 100 µM (inactive) | > 100 µM (inactive) | > 100 µM (inactive) | > 100 µM (inactive) | > 100 µM (inactive) | > 100 µM (inactive) | > 100 µM (inactive) | > 100 µM (inactive) | > 100 µM (inactive)
6 | CCOC(=O)CCSS(=O)(=O)C(F)(F)F | – | > 100 µM (inactive) | > 100 µM (inactive) | > 100 µM (inactive) | > 100 µM (inactive) | – | > 100 µM (inactive) | > 100 µM (inactive) | > 100 µM (inactive) | > 100 µM (inactive) | > 100 µM (inactive) | > 100 µM (inactive) | – | > 100 µM (inactive) | > 100 µM (inactive) | – | > 100 µM (inactive) | > 100 µM (inactive) | > 100 µM (inactive)
7 | Cc1nc2c(sc(=S)n2-c2ccccc2)c(=O)[nH]1 | – | – | > 100 µM (inactive) | – | – | > 100 µM (inactive) | – | – | – | > 100 µM (inactive) | – | > 100 µM (inactive) | – | – | – | > 100 µM (inactive) | > 100 µM (inactive) | – | –
8 | COC(=O)C(C(=O)OC)C1CC(=O)c2c(Br)sc(Br)c21 (stereo not drawn) | 20.9 µM (inactive) | 26.1 µM (inactive) | 31.5 µM (inactive) | 22.9 µM (inactive) | 16.4 µM (inactive) | 12.5 µM (inactive) | 14.2 µM (inactive) | 17.5 µM (inactive) | 18.3 µM (inactive) | 17.3 µM (inactive) | 23.4 µM (inactive) | 31.5 µM (inactive) | – | 28.6 µM (inactive) | 18.4 µM (inactive) | 13.4 µM (inactive) | 11.5 µM (inactive) | 13 µM (inactive) | 16.8 µM (inactive)
9 | CC(=O)O[C@@H]1[C@H]2[C@@H](OC(=O)c3ccccc3)[C@@H](C)C[C@]2(O)[C@H](OC(C)=O)[C@@]2(C)[C@@H]3C[C@@](C)(OC(C)=O)C[C@@H](OC(C)=O)[C@@]3(OC(C)=O)C[C@@]12C | > 10 µM (inactive) | > 10 µM (inactive) | > 10 µM (inactive) | > 10 µM (inactive) | > 10 µM (inactive) | > 10 µM (inactive) | > 10 µM (inactive) | > 10 µM (inactive) | > 10 µM (inactive) | > 10 µM (inactive) | > 10 µM (inactive) | > 10 µM (inactive) | > 10 µM (inactive) | > 10 µM (inactive) | > 10 µM (inactive) | – | – | > 10 µM (inactive) | > 10 µM (inactive)
10 | Oc1ccc(-c2nc3cc(C(F)(F)F)ccc3s2)cc1 | – | 17.4 µM (inactive) | 18.2 µM (inactive) | – | 16.4 µM (inactive) | 15.8 µM (inactive) | 14.5 µM (inactive) | 15.7 µM (inactive) | 15.5 µM (inactive) | – | 17.7 µM (inactive) | 18.8 µM (inactive) | 14.2 µM (inactive) | – | 15.1 µM (inactive) | 13.6 µM (inactive) | 16.7 µM (inactive) | – | 20 µM (inactive)
11 | COC(=O)[C@@H]1O[C@]12[C@@H](CO[Si](C)(C)C(C)(C)C)O[C@@H](n1cc(C)c(=O)[nH]c1=O)[C@@H]2O[Si](C)(C)C(C)(C)C | 19.1 µM (inactive) | 7.35 µM (inactive) | – | 23.1 µM (inactive) | 18.2 µM (inactive) | – | 20.4 µM (inactive) | 19.5 µM (inactive) | 19.5 µM (inactive) | 26.2 µM (inactive) | 12.9 µM (inactive) | 45 µM (inactive) | 19.9 µM (inactive) | 6.31 µM (inactive) | 15.9 µM (inactive) | 21.6 µM (inactive) | – | 32.5 µM (inactive) | 13.6 µM (inactive)
12 | C/C(=N\Nc1nc2ccccc2[nH]1)c1cccc[n+]1[O-] | > 100 µM (inactive) | 45.2 µM (inactive) | > 100 µM (inactive) | – | > 100 µM (inactive) | 30.1 µM (inactive) | > 100 µM (inactive) | > 100 µM (inactive) | > 100 µM (inactive) | > 100 µM (inactive) | > 100 µM (inactive) | 67.1 µM (inactive) | > 100 µM (inactive) | > 100 µM (inactive) | > 100 µM (inactive) | 52.7 µM (inactive) | > 100 µM (inactive) | > 100 µM (inactive) | 38.5 µM (inactive)
13 | CC(=O)OCC1OC(N2C(=O)NC(=O)C3C=C4CCCCC4=CC32)C(OC(C)=O)C1OC(C)=O (stereo not drawn) | – | > 100 µM (inactive) | > 100 µM (inactive) | – | > 100 µM (inactive) | > 100 µM (inactive) | > 100 µM (inactive) | > 100 µM (inactive) | > 100 µM (inactive) | – | > 100 µM (inactive) | > 100 µM (inactive) | > 100 µM (inactive) | > 100 µM (inactive) | > 100 µM (inactive) | > 100 µM (inactive) | > 100 µM (inactive) | > 100 µM (inactive) | –
14 | Cc1cc(NC(=S)SCc2ccc(F)cc2)c([N+](=O)[O-])cc1C | 13.4 µM (inactive) | 22.9 µM (inactive) | – | 46.9 µM (inactive) | 32.2 µM (inactive) | 20.3 µM (inactive) | 42.2 µM (inactive) | 26.7 µM (inactive) | 35.5 µM (inactive) | 24.7 µM (inactive) | – | 24.2 µM (inactive) | 14.6 µM (inactive) | 48.8 µM (inactive) | 28.2 µM (inactive) | 25.6 µM (inactive) | – | 30.9 µM (inactive) | 25.8 µM (inactive)
15 | N#C/C(N)=C(C#N)/N=C/NCc1ccccc1 | > 100 µM (inactive) | – | > 100 µM (inactive) | > 100 µM (inactive) | > 100 µM (inactive) | > 100 µM (inactive) | > 100 µM (inactive) | > 100 µM (inactive) | > 100 µM (inactive) | > 100 µM (inactive) | > 100 µM (inactive) | > 100 µM (inactive) | > 100 µM (inactive) | 75.9 µM (inactive) | > 100 µM (inactive) | > 100 µM (inactive) | > 100 µM (inactive) | > 100 µM (inactive) | 50.1 µM (inactive)
16 | O=c1c(-c2ccc(O)cc2)coc2cc(O)cc(O)c12 [GENISTEIN] | 65.2 µM (inactive) | – | – | – | 92.5 µM (inactive) | 56.8 µM (inactive) | > 100 µM (inactive) | > 100 µM (inactive) | > 100 µM (inactive) | – | > 100 µM (inactive) | > 100 µM (inactive) | – | > 100 µM (inactive) | 88.3 µM (inactive) | > 100 µM (inactive) | 77.8 µM (inactive) | > 100 µM (inactive) | > 100 µM (inactive)
17 | O=[N+]([O-])c1cccc2nc3ccccc3c(NCCNCCO)c12 | 0.0251 µM (active) | 0.00513 µM (active) | 0.0121 µM (active) | 0.0188 µM (active) | 0.00288 µM (active) | 0.00112 µM (active) | 0.00245 µM (active) | 0.011 µM (active) | 0.011 µM (active) | 0.0169 µM (active) | – | 0.0385 µM (active) | 0.017 µM (active) | 0.00819 µM (active) | 0.00542 µM (active) | 0.00877 µM (active) | 0.00383 µM (active) | 0.00335 µM (active) | 0.248 µM (active)
